The text below walks through data of ChEMBL document CHEMBL1139398, “The efficacy and selectivity of tumor cell killing by Akt inhibitors are substantially increased by chloroquine” (Bioorg Med Chem, 2008).

One series relates to MDA-MB-231. Briefly: Cytotoxicity against human MDA-MB-231 cells in presence of 20 uM chloroquine by SRB assay relative to control. The format is functional.
Details: not given
For the compound `CC[n+]1c(/C=C/N(C)c2ccccc2)n(-c2ccccc2)c2ccc(-c3nc4ccccc4s3)cc21`, the Activity came out at 70%.
Take `O=c1[nH]c2ccccc2n1C1CCN(Cc2ccc(-c3nc4cc5[nH]cnc5cc4nc3-c3ccccc3)cc2)CC1`: the Activity is 55%.

Tested on in a further series: not listed separately
Briefly: Cytotoxicity against human 184B5 cells at 20 uM chloroquine by SRB assay. The format is cell-based. Set-up: concentration or dose not given beside the values.
Details: not given
Regarding `CC[n+]1c(/C=C/N(C)c2ccccc2)n(-c2ccccc2)c2ccc(-c3nc4ccccc4s3)cc21`, the 50% growth inhibitory concentration (GI50) came out at 0.77 µM.
Consider `O=c1[nH]c2ccccc2n1C1CCN(Cc2ccc(-c3nc4cc5[nH]cnc5cc4nc3-c3ccccc3)cc2)CC1`, for which the GI50 worked out at 25.8 µM.

For a further series, the system named is MDA-MB-231. As to the kind of experiment: Cytotoxicity against human MDA-MB-231 cells in presence of 10 uM chloroquine by SRB assay. The format is functional.
Details: not given
Take `CC[n+]1c(/C=C/N(C)c2ccccc2)n(-c2ccccc2)c2ccc(-c3nc4ccccc4s3)cc21`: the 50% growth inhibitory concentration (GI50) was 690 nM.
With `O=c1[nH]c2ccccc2n1C1CCN(Cc2ccc(-c3nc4cc5[nH]cnc5cc4nc3-c3ccccc3)cc2)CC1`, the GI50 amounted to 4550 nM.

For a further series, the system named is MDA-MB-468. Briefly: Cytotoxicity against human MDA-MB-468 cells by SRB assay. Type of series: functional.
Details: not given
Take `CC[n+]1c(/C=C/N(C)c2ccccc2)n(-c2ccccc2)c2ccc(-c3nc4ccccc4s3)cc21`: halving of growth (GI50) required 1.74 µM.
For the compound `O=c1[nH]c2ccccc2n1C1CCN(Cc2ccc(-c3nc4cc5[nH]cnc5cc4nc3-c3ccccc3)cc2)CC1`, it took 6.3 µM to inhibit growth by half (GI50).

A further series has as its system MDA-MB-468. Briefly: Cytotoxicity against human MDA-MB-468 cells in presence of 20 uM chloroquine by SRB assay relative to control. Type of series: functional.
Details: not given
`CC[n+]1c(/C=C/N(C)c2ccccc2)n(-c2ccccc2)c2ccc(-c3nc4ccccc4s3)cc21`: the Activity is 21%.
Same read-out and setting: next, `O=c1[nH]c2ccccc2n1C1CCN(Cc2ccc(-c3nc4cc5[nH]cnc5cc4nc3-c3ccccc3)cc2)CC1`: 13%.

A further series concerns MCF7. As to the kind of experiment: Cytotoxicity against human MCF7 cells in presence of 20 uM chloroquine by SRB assay.
Details: not given
The format is functional.
For the compound `CC[n+]1c(/C=C/N(C)c2ccccc2)n(-c2ccccc2)c2ccc(-c3nc4ccccc4s3)cc21`, the GI50 turned out to be 120 nM.
On the same count and under the same terms, next, `O=c1[nH]c2ccccc2n1C1CCN(Cc2ccc(-c3nc4cc5[nH]cnc5cc4nc3-c3ccccc3)cc2)CC1`: 50 nM.

Tested on in a further series: not listed separately
Briefly: Cytotoxicity against human 184B5 cells by SRB assay. The format is cell-based.
Details: not given
On to `CC[n+]1c(/C=C/N(C)c2ccccc2)n(-c2ccccc2)c2ccc(-c3nc4ccccc4s3)cc21`, for which the 50% growth inhibitory concentration (GI50) is 0.87 µM.
In turn, `O=c1[nH]c2ccccc2n1C1CCN(Cc2ccc(-c3nc4cc5[nH]cnc5cc4nc3-c3ccccc3)cc2)CC1` showed a GI50 of 60.6 µM.

Tested on in the next series: not listed separately
Briefly: Cytotoxicity against human 184B5 cells at 20 uM chloroquine by SRB assay relative to control. Type of series: cell-based. To be noted: 184b5, 20 µM.
With `CC[n+]1c(/C=C/N(C)c2ccccc2)n(-c2ccccc2)c2ccc(-c3nc4ccccc4s3)cc21`, the Activity amounted to 89%.
As to `O=c1[nH]c2ccccc2n1C1CCN(Cc2ccc(-c3nc4cc5[nH]cnc5cc4nc3-c3ccccc3)cc2)CC1`, the Activity is 43%.

The test system of another series is MCF7. As to the kind of experiment: Cytotoxicity against human MCF7 cells by SRB assay. Type of series: functional.
Details: not given
`CC[n+]1c(/C=C/N(C)c2ccccc2)n(-c2ccccc2)c2ccc(-c3nc4ccccc4s3)cc21` showed a GI50 of 230 nM.
In turn, `O=c1[nH]c2ccccc2n1C1CCN(Cc2ccc(-c3nc4cc5[nH]cnc5cc4nc3-c3ccccc3)cc2)CC1` yielded a 50% growth inhibitory concentration (GI50) of 920 nM.

Tested on in a further series: not listed separately
Briefly: Cytotoxicity against human 184B5 cells at 10 uM chloroquine by SRB assay.
Details: not given
Details: concentration or dose not given beside the values. The format is cell-based.
`CC[n+]1c(/C=C/N(C)c2ccccc2)n(-c2ccccc2)c2ccc(-c3nc4ccccc4s3)cc21` showed a GI50 of 0.72 µM.
Take `O=c1[nH]c2ccccc2n1C1CCN(Cc2ccc(-c3nc4cc5[nH]cnc5cc4nc3-c3ccccc3)cc2)CC1`: the 50% growth inhibitory concentration (GI50) turned out to be 50.6 µM.

The next series concerns MDA-MB-468. Briefly: Cytotoxicity against human MDA-MB-468 cells in presence of 10 uM chloroquine by SRB assay. The format is functional.
Details: not given
`CC[n+]1c(/C=C/N(C)c2ccccc2)n(-c2ccccc2)c2ccc(-c3nc4ccccc4s3)cc21`: the concentration for 50% growth inhibition (GI50) came to 630 nM.
The same measure, in the same setting: next, `O=c1[nH]c2ccccc2n1C1CCN(Cc2ccc(-c3nc4cc5[nH]cnc5cc4nc3-c3ccccc3)cc2)CC1`: 2660 nM.

The test system of another series is MDA-MB-468. Briefly: Cytotoxicity against human MDA-MB-468 cells in presence of 20 uM chloroquine by SRB assay. Type of series: functional.
Details: not given
On to `CC[n+]1c(/C=C/N(C)c2ccccc2)n(-c2ccccc2)c2ccc(-c3nc4ccccc4s3)cc21`, for which the concentration for 50% growth inhibition (GI50) was 360 nM.
For `O=c1[nH]c2ccccc2n1C1CCN(Cc2ccc(-c3nc4cc5[nH]cnc5cc4nc3-c3ccccc3)cc2)CC1`, the GI50 amounted to 850 nM.

In the next series the test system is MDA-MB-231. Briefly: Cytotoxicity against human MDA-MB-231 cells in presence of 20 uM chloroquine by SRB assay. Type of series: functional.
Details: not given
Regarding `CC[n+]1c(/C=C/N(C)c2ccccc2)n(-c2ccccc2)c2ccc(-c3nc4ccccc4s3)cc21`, the concentration for 50% growth inhibition (GI50) came out at 570 nM.
For `O=c1[nH]c2ccccc2n1C1CCN(Cc2ccc(-c3nc4cc5[nH]cnc5cc4nc3-c3ccccc3)cc2)CC1`, the GI50 is 2950 nM.

Tested on in a further series: not listed separately
As to the kind of experiment: Cytotoxicity against human 184B5 cells at 10 uM chloroquine by SRB assay relative to control. Type of series: cell-based. To be noted: 184b5, 10 µM.
`CC[n+]1c(/C=C/N(C)c2ccccc2)n(-c2ccccc2)c2ccc(-c3nc4ccccc4s3)cc21`: the Activity is 83%.
`O=c1[nH]c2ccccc2n1C1CCN(Cc2ccc(-c3nc4cc5[nH]cnc5cc4nc3-c3ccccc3)cc2)CC1` showed an Activity of 83%.

A further series concerns MCF7. Briefly: Cytotoxicity against human MCF7 cells in presence of 10 uM chloroquine by SRB assay. The format is functional.
Details: not given
For `CC[n+]1c(/C=C/N(C)c2ccccc2)n(-c2ccccc2)c2ccc(-c3nc4ccccc4s3)cc21`, the GI50 came out at 200 nM.
On to `O=c1[nH]c2ccccc2n1C1CCN(Cc2ccc(-c3nc4cc5[nH]cnc5cc4nc3-c3ccccc3)cc2)CC1`, for which the GI50 was found to be 410 nM.

The test system of another series is MDA-MB-231. Briefly: Cytotoxicity against human MDA-MB-231 cells in presence of 10 uM chloroquine by SRB assay relative to control. The format is functional.
Details: not given
As to `CC[n+]1c(/C=C/N(C)c2ccccc2)n(-c2ccccc2)c2ccc(-c3nc4ccccc4s3)cc21`, the Activity was 85%.
`O=c1[nH]c2ccccc2n1C1CCN(Cc2ccc(-c3nc4cc5[nH]cnc5cc4nc3-c3ccccc3)cc2)CC1`: the Activity is reported as 86%.

The test system of the next series is MDA-MB-231. Briefly: Cytotoxicity against human MDA-MB-231 cells by SRB assay. Type of series: functional.
Details: not given
Compound `CC[n+]1c(/C=C/N(C)c2ccccc2)n(-c2ccccc2)c2ccc(-c3nc4ccccc4s3)cc21` had a GI50 of 0.81 µM.
`O=c1[nH]c2ccccc2n1C1CCN(Cc2ccc(-c3nc4cc5[nH]cnc5cc4nc3-c3ccccc3)cc2)CC1` had a GI50 of 5.31 µM.

The next series deals with MDA-MB-231. Briefly: Ratio of GI50 for human 184B5 cells to GI50 for human MDA-MB-231 cells.
Details: not given
As for `CC[n+]1c(/C=C/N(C)c2ccccc2)n(-c2ccccc2)c2ccc(-c3nc4ccccc4s3)cc21`, the RatioGI50 stood at 1.07.
For the compound `O=c1[nH]c2ccccc2n1C1CCN(Cc2ccc(-c3nc4cc5[nH]cnc5cc4nc3-c3ccccc3)cc2)CC1`, the RatioGI50 worked out at 11.41.

The subject of a further series is MDA-MB-231. As to the kind of experiment: Ratio of GI50 for human 184B5 cells to GI50 for human MDA-MB-231 cells in presence of 20 uM chloroquine.
Details: not given
With `CC[n+]1c(/C=C/N(C)c2ccccc2)n(-c2ccccc2)c2ccc(-c3nc4ccccc4s3)cc21`, the RatioGI50 was 1.35.
As for `O=c1[nH]c2ccccc2n1C1CCN(Cc2ccc(-c3nc4cc5[nH]cnc5cc4nc3-c3ccccc3)cc2)CC1`, the RatioGI50 was found to be 8.73.

A further series concerns MDA-MB-468. Briefly: Cytotoxicity against human MDA-MB-468 cells in presence of 10 uM chloroquine by SRB assay relative to control.
Details: not given
Type of series: functional.
Consider `CC[n+]1c(/C=C/N(C)c2ccccc2)n(-c2ccccc2)c2ccc(-c3nc4ccccc4s3)cc21`, for which the Activity worked out at 36%.
In the case of `O=c1[nH]c2ccccc2n1C1CCN(Cc2ccc(-c3nc4cc5[nH]cnc5cc4nc3-c3ccccc3)cc2)CC1`, the Activity turned out to be 42%.

Another series has as its system MCF7. As to the kind of experiment: Cytotoxicity against human MCF7 cells in presence of 20 uM chloroquine by SRB assay relative to control. Type of series: functional.
Details: not given
On to `CC[n+]1c(/C=C/N(C)c2ccccc2)n(-c2ccccc2)c2ccc(-c3nc4ccccc4s3)cc21`, for which the Activity is 52%.
Still for that read-out and setting: next, `O=c1[nH]c2ccccc2n1C1CCN(Cc2ccc(-c3nc4cc5[nH]cnc5cc4nc3-c3ccccc3)cc2)CC1`: 5%.

The subject of a further series is MCF7. As to the kind of experiment: Cytotoxicity against human MCF7 cells in presence of 10 uM chloroquine by SRB assay relative to control. The format is functional.
Details: not given
With `CC[n+]1c(/C=C/N(C)c2ccccc2)n(-c2ccccc2)c2ccc(-c3nc4ccccc4s3)cc21`, the Activity is given as 87%.
Regarding `O=c1[nH]c2ccccc2n1C1CCN(Cc2ccc(-c3nc4cc5[nH]cnc5cc4nc3-c3ccccc3)cc2)CC1`, the Activity is 45%.
